According to patent US20250367162A1, “Additive for Food, Drink and Pharmaceutical Products to Improve Health and Well-Being” (RB2 Enterprises, LLC, priority 2021, published 2025):

Tests used:
[1] = bioavailability (share of consumed substance entering the bloodstream); type: in vivo; conditions: mixed with an effective amount of a hydrogenated substance such as Erythritol
Method: For use as an additive 50 that accomplishes the various objectives and which provides the aspects of the present invention, the present inventor solved several problems with regard to use of Dihydromyricetin 14a. One such problem is that Dihydromyricetin 14a, on its own, has a solubility of approximately 0.2 mg per ml of fluid, which is very low. Because the solubility of Dihydromyricetin 14a is so low, it cannot be effectively utilized as a medicine or supplement, despite the well known benefits of this flavonoid 14 for people (as well as certain animals). Another issue with Dihydromyricetin 14a is that, on its own, it has a bioavailability of approximately four percent, meaning that only about four percent of consumed Dihydromyricetin 14a enters a person's bloodstream and stays long enough to be biologically effective for product user 56. […] Mixing an effective amount of one or more solvents 60, such as a bicarbonate substance 60a or an alcohol solvent 60b, increases the solubility of Dihydromyricetin 14a from approximately 0.2 mg per ml of fluid to approximately 114 mg per ml of fluid.

[2] = stability / shelf-life; type: physicochemical
[3] = on its own; share of consumed Dihydromyricetin that enters a person's bloodstream; cited from earlier work

## O=C1c2c(O)cc(O)cc2O[C@H](c2cc(O)c(O)c(O)c2)[C@H]1O [Dihydromyricetin 14a, Dihydromyricetin]
[1]
  bioavailability of Dihydromyricetin: greatly improves the bioavailability
[2]; mixed with an effective amount of Erythritol and/or other hydrogenated substances
  shelf-life of Dihydromyricetin: extends the Dihydromyricetin 14a shelf-life
[2]; on its own, light sensitivity and other shelf-life limitations
  stability: poor stability
[3]
  bioavailability: approximately four
